#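 Values below derive from 48-hour exposures of cells grown in 96-well plates, with endpoints linearly interpolated between the two concentrations bracketing the appropriate inhibition level. GI50: concentration for 50% inhibition of growth. TGI denotes the concentration required for complete inhibition of growth.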
# Experiments:
# Test in all cases: NCI-60 cell line screen, 48 h
# A498 renal = tested on: A498 renal
# ACHN renal = tested on: ACHN renal
# CCRF-CEM leukemia = tested on: CCRF-CEM leukemia
# KM12 colon = tested on: KM12 colon
# MDA-MB-435 = tested on: MDA-MB-435
# MOLT-4 leukemia = tested on: MOLT-4 leukemia
# NCI-H23 lung = tested on: NCI-H23 lung
# PC-3 prostate = tested on: PC-3 prostate
# SK-OV-3 ovarian = tested on: SK-OV-3 ovarian
# EKVX NSCLC = tested on: EKVX NSCLC
Compound,GI50 (A498 renal) [µM],TGI (A498 renal) [µM],GI50 (ACHN renal) [µM],TGI (ACHN renal) [µM],GI50 (CCRF-CEM leukemia) [µM],TGI (CCRF-CEM leukemia) [µM],GI50 (KM12 colon) [µM],TGI (KM12 colon) [µM],GI50 (MDA-MB-435) [µM],TGI (MDA-MB-435) [µM],GI50 (MOLT-4 leukemia) [µM],TGI (MOLT-4 leukemia) [µM],GI50 (NCI-H23 lung) [µM],TGI (NCI-H23 lung) [µM],GI50 (PC-3 prostate) [µM],TGI (PC-3 prostate) [µM],GI50 (SK-OV-3 ovarian) [µM],TGI (SK-OV-3 ovarian) [µM],TGI (EKVX NSCLC) [µM],GI50 (EKVX NSCLC) [µM]
CCOC(=O)Nc1nc2cc(OCC)ccc2s1,6.46,> 100,> 100,> 100,> 100,> 100,3.86,> 100,0.923,5.15,31.7,> 100,> 100,> 100,> 100,> 100,> 100,> 100,,
CCCCN(CCCC)CCc1c(C)cc(C)c(CCN(CCCC)CCCC)c1O,2.3,7.31,3.47,> 100,3.12,> 100,3.2,21.2,3.11,53.2,2.73,10.8,2.76,23.7,,,2.68,8.53,,
COC(=O)C(=O)C(C(=O)C(N)=O)c1nc2ccc(C(=O)c3ccccc3)cc2[nH]c1=O (stereo unspecified),,> 100,,> 100,,> 100,,> 100,,> 100,,> 100,,,,> 100,,> 100,> 100,
Cc1c(Cl)cccc1NC(=O)/C(Cl)=C(\Cl)C(=O)O,,> 100,,31.3,,44.5,,31.1,,,,48.2,,33.8,,,,33.3,,
S=P(N1CCCC1)(N1CC1)N1CC1,,> 100,,> 100,,> 100,,> 100,,,,> 100,,> 100,,,,> 100,> 100,
NC(=O)c1csc(C2CCC(CO)O2)n1 (stereo unspecified),,> 100,,> 100,,> 100,,> 100,,,,> 100,,> 100,,,,> 100,> 100,
CC(=O)c1cccc(-c2cccc(-c3ccn(CCN4CCOCC4)n3)c2)c1,14.5,> 20,> 20,> 20,> 20,> 20,> 20,> 20,> 20,> 20,> 20,> 20,> 20,> 20,> 20,> 20,> 20,> 20,,
CS(=O)(=O)NNS(=O)(=O)c1ccc(Cl)cc1,,> 100,,> 100,,> 100,,> 100,,,,> 100,,> 100,,,,,> 100,
COC(=O)c1ccc(C(=O)OC)c2nc3cc(C)ccc3nc12,,> 100,,> 100,,> 100,,> 100,,,,> 100,,> 100,,,,> 100,> 100,
Cc1c(C(=O)CC(=O)C(=O)Nc2cc(Cl)ccc2Cl)[n+](=O)c2ccccc2n1[O-],,> 100,,> 100,,> 100,,> 100,,,,66.5,,> 100,,,,> 100,> 100,
COC(=O)c1cc(-c2ccc(OC)cc2)[nH]c1N/N=C/c1c(Cl)cccc1Cl,0.185,3.43,0.316,4.42,0.312,3.39,0.141,6.75,,,0.415,,0.412,14,0.261,3.78,0.188,2.19,3.23,0.224
Clc1ccc(-c2c(C3=NCCN3)nnn2-c2ccccc2)cc1,,> 100,,> 100,,> 100,,> 100,,,,> 100,,> 100,,,,> 100,> 100,
O=C1CCN2CCC(=O)c3c2c(cc2ccccc32)N1,,> 100,,> 100,,> 100,,> 100,,,,> 100,,,,,,> 100,> 100,
COc1ccc2ccccc2c1CN1CCOCCOCCN(Cc2c(OC)ccc3ccccc23)CCOCCOCC1,,> 100,,> 100,,> 100,,> 100,,,,> 90.1,,> 100,,,,> 100,> 100,
CCCCCCCCCCCCCC(=O)NCC(OCC)OCC,,> 100,,> 100,,> 100,,> 100,,,,,,> 100,,,,> 100,> 100,
CCCCN(CC)c1ncnc2ccc(Br)cc12,10.2,23.6,14.5,40.3,19,63.8,15.3,31.6,16,34.4,2.45,> 100,18.8,44.4,18.9,49.6,18.8,49.4,,
CC(/C=C/NNC1=NC(c2ccccc2)C(c2ccccc2)=NN1)Sc1ccccc1N (stereo unspecified),,26.6,,22.2,,,,21.8,,,,34,,29.7,,,,31,32.8,
Cc1cccc(N=C2NC(=O)C(CC(=O)Nc3ccc(C)cc3C)S2)c1 (stereo unspecified),,> 100,,> 100,,> 100,,,,,,> 100,,> 100,,,,,> 100,
CCOC(=O)C1=C(Nc2ccc(Cl)c(Cl)c2)OC/C1=N\NC(=O)Cc1ccccc1,,> 100,,,,> 100,,> 100,,,,> 100,,> 100,,,,> 100,> 100,
CC1(O)CCC2(C)C(=O)C1(C)CCC21OCCO1 (stereo unspecified),,,,> 100,,> 100,,> 100,,,,> 100,,> 100,,,,> 100,> 100,
N#Cc1c(C[n+]2ccccc2)c2ccccc2oc1=O,,,,> 100,,> 100,,> 100,,,,> 100,,> 100,,,,> 100,> 100,
